Measured values reported in patent US20130130376A1, “SCREENING METHODS, COMPOSITIONS IDENTIFIED THEREBY, TOOLS USEFUL FOR THE IDENTIFICATION THEREOF, AND CELL POPULATIONS PRODUCED THEREBY” (priority 2010, published 2013).

System: Jurkat cells
Assay: ECMP attachment screen for Jurkat cell attachment on hydrogel array spots
Format: cell-based, human
Settings: printed alone in a 400 μm spot on hydrogel coated slide; nuclear fluorescence (DraQ) after 3 hours of attachment
Experimental: In certain embodiments, stock solutions of extracellular matrix (ECM) components (0.01 mg/ml-1 mg/ml), such as Collagen I, III, IV, V, VI, Fibronectin, Laminin, and the like, as well as Hyaluronic Acid, gelatin and BSA (negative control) are mixed 1:1 with 200 mM acetate, 10 mM EDTA, 40% (v/v) glycerol, and 0.5% (v/v) Triton X-100 in MQH2O, at pH 4.9. Individual and combinations of different components are mixed in 384-well plates. This ECM based array is used to screen for the optimal cell attachment conditions.
The human acute T cell leukemia Jurkat cell line (ATTC Number TIB-153) was purchased from American Type Culture Collection (ATCC). Cells were cultured in RPMI-1640, supplemented with 10% FBS, 2 mmol/liter glutamin and antibiotics (100 IU/ml of penicillin G) and incubated at 37° C. in a humidified atmosphere of 5% CO2. […]
FIG. 3, for example, summarizes the attachment components that were identified to support Jurkat cell attachment on invention arrays. Briefly, Jurkat nuclear intensity was monitored by fluorescence using DraQ staining after 3 hours of attachment. The slides were read using a […] and fluorescence was quantified using the Genepix 2.0 software. […]

Substance: Fibronectin
- Jurkat cell attachment: consistently supported attachment of Jurkat cells
